Data taken from US4533553A, “Polycyclic ether antibiotic” (priority 1983, dated 1985).

What was measured:
[1] = system: rumen fluid; assay: in vitro rumen technique, propionic acid production; parameters: species or system cow; conditions: for increase in propionic acid: comparison with Salinomycin
Protocol: The value of animal feeds generally has been determined directly by feeding the animal. British Patent Specification No. 1,197,826 details an in vitro rumen technique whereby the changes occurring in feeds brought about by microorganisms are measured more readily and with great accuracy in the evaluation of animal feeds. This technique involves the use of an apparatus in which the digestive processes of the animals are conducted and studied in vitro. The animal feeds, rumen inoculum and various growth promotants are introduced into and withdrawn from a laboratory unit under carefully controlled conditions and the changes taken place are studied critically and progressively during the consumption of the feed by the microorganisms. […] The change in propionic acid content is expressed as percent of the propionic acid content found in the control rumen fluid. Long term in vivo feeding studies are used to show a reliable correlation between propionic acid increase in the rumen fluid and improved animal performance.
Rumen fluid is collected from a fistulated cow which is fed on a commercial fattening ration plus hay. The rumen fluid is immediately filtered through cheese cloth, and 10 ml added to a 50 ml conical flask containing 400 mg. of standard substrate (68% corn starch+17% cellulose+15% extracted soybean meal), 10 ml. of a pH 6.8 buffer and the test compound. The flasks are gassed with oxygen free nitrogen for about two minutes, and incubated in a shaking water bath at 39° C. for about 16 hours. All tests are conducted in triplicate.
After incubation, 5 ml. of the sample is mixed with 1 ml. of 25% metaphosphoric acid. After 10 minutes 0.25 ml. of formic acid is added and the mixture centrifuged at 1,500 r.p.m. for 10 minutes. Samples are then analyzed by gas-liquid chromatograhy by the method of D. W. Kellog, J. Dairy Science, 52, 1690 (1969). Peak heights for acetic, propionic and butyric acids are determined for samples from untreated and treated incubation flasks.

[2] = system: Enterobacteriacese aerogenes; assay: in vitro MIC test; type: cell-based; conditions: 24 h
Protocol: (§1) In Table I, below, the results of in vitro MIC tests are summarized. For this test each organism is inoculated in a series of test tubes containing nutrient medium and varying concentrations of Compound 53,607 to determine the minimal concentration of the antibiotic in mcg/ml which inhibits the growth of the organism over a period of 24 hours (MIC).

[3] = system: Klebsiella pneumoniae; assay: in vitro MIC test; type: cell-based; conditions: 24 h
Protocol: as §1

[4] = system: Escherischia coli; assay: in vitro MIC test; type: cell-based; conditions: 24 h
Protocol: as §1

[5] = system: Serratia marcescens; assay: in vitro MIC test; type: cell-based; conditions: 24 h
Protocol: as §1

[6] = system: Pseudomonas aeruginosa; assay: in vitro MIC test; type: cell-based; conditions: 24 h
Protocol: as §1

[7] = system: Gram-positive microorganisms; assay: inhibitory action against growth of Gram-positive microorganisms; type: cell-based; conditions: in vitro
Protocol: as §1

[8] = system: coccidial infections in poultry; assay: activity against coccidial infections in poultry; type: in vivo
Protocol: (§2) Efficacy data for Antibiotic Compound 53,607 and its salts against coccidial infections in chickens was obtained in the following fashion. Groups of 3-5 ten-day old SPF white leghorn cockerel chicks were fed a mash diet containing Antibiotic Compound 53,607 or its sodium and/or potassium salt uniformly dispersed therein. After being on this ration for 24 hours each chick was inoculated per os with oocysts of the particular species of Eimeria being tested. Other groups of 3-5 ten-day old chicks were fed a similar mash diet free of Antibiotic Compound 53,607 or its salts. They were also infected after 24 hours and served as infected controls. Yet other groups of 3-5 ten-day old chicks were fed the mash diet free of Antibiotic Compound 53,607 and were not infected with coccidia. These served as normal controls. The results of treatment were evaluated after five days in the case of E. acervulina, and six days for all other challenges.

[9] = solubility; type: physicochemical
[10] = system: Eimeria acervulina; assay: efficacy against coccidial infections in chickens; type: in vivo; conditions: for Weight Gain / Average degree of Infection: five days; for Average degree of Infection: lesion score 0 to 3; for Ratio: lesion score treated / infected control
Protocol: as §2
(§3) ^1 The criteria used to measure anticoccidial activity consisted of
(§4) lesion scores of 0 to 4 for E. tenella after J. E. Lynch "A New Method fo
(§5) the Primary Evaluation of Anticoccidial Activity." , Am. J. Vet. Res.
(§6) 22:324-326 (1961); and 0 to 3 for the other species based on modification
(§7) of the scoring system devised by J. Johnson and W. H. Reid, "Anticoccidia
(§8) drugs. Lesion Scoring Techniques in Battery and Floor Pen Experiments in
(§9) Chicks.", Exp. Parasit. 28: 30-36(1970). A constant ratio was established
(§10) by dividing the lesion score of each treated group by the lesion score of […]

[11] = system: Eimeria brunetti; assay: efficacy against coccidial infections in chickens; type: in vivo; conditions: for Average degree of Infection: lesion score 0 to 3; for Average degree of Infection / Weight Gain: six days; for Ratio: lesion score treated / infected control
Protocol: as §2, §3, §4, §5, §6, §7, §8, §9, §10

[12] = system: Eimeria maxima; assay: efficacy against coccidial infections in chickens; type: in vivo; conditions: for Average degree of Infection: lesion score 0 to 3; for Average degree of Infection / Weight Gain: six days; for Ratio: lesion score treated / infected control
Protocol: as §2, §3, §4, §5, §6, §7, §8, §9, §10

[13] = system: Eimeria necatrix; assay: efficacy against coccidial infections in chickens; type: in vivo; conditions: for Average degree of Infection: lesion score 0 to 3; for Average degree of Infection / Weight Gain: six days; for Ratio: lesion score treated / infected control
Protocol: as §2, §3, §4, §5, §6, §7, §8, §9, §10

[14] = system: Eimeria tenella; assay: efficacy against coccidial infections in chickens; type: in vivo; conditions: for Average degree of Infection: lesion score 0 to 4
Protocol: as §2, §3, §4, §5, §6, §7, §8, §9, §10

[15] = 25 ppm in diet, value in parentheses (not explained)
[16] = 50 ppm in diet, value in parentheses (not explained)
[17] = 100 ppm in diet, value in parentheses (not explained)

For `CC[C@@H](C(=O)[C@@H](C)[C@@H](O)[C@H](C)[C@@H]1O[C@@H]([C@@H](CC)C(=O)O)CC[C@@H]1C)[C@H]1O[C@]2(C=C[C@@H](O)[C@]3(CC[C@@](C)([C@H]4CC[C@](O)(CC)[C@H](C)O4)O3)O2)[C@H](C)C[C@@H]1C` [Salinomycin, reference compound], the “increase in propionic acid” value ([1]; 5 μg./ml.) was “about 52%”.
Compound `CC(=CC(C)C1OC2(CCC(C)(C3CCC(C)C4(OC(C5OC(O)(CO)C(C)CC5C)CC4C)O3)O2)CC(O)C1C)C(=O)C(C)CC(C)C(=O)O` (stereo not drawn) [Antibiotic Compound 53,607] has an MIC [2] greater than 50 mg/L, an MIC [3] greater than 50 mg/L and an MIC [4] greater than 50 mg/L. For the same compound, the MIC [5] was greater than 50 mg/L, the MIC [6] was greater than 50 mg/L and the “increase in propionic acid” value ([1]; 5 μg./ml.) was “about 40%”. For the same compound, the “increase in propionic acid” value ([1]; 20 μg./ml.) was “about 43%”, the “increase in the production of propionic acid over control” value ([1]; 20 micrograms per milliliter, first comparison (with Monensin)) was “about 57%” and the “inhibitory action against growth” value [7] was “exhibits inhibitory action”. The “activity against coccidial infections in poultry” value [8] was “excellent activity”, the solubility in chloroform ([9]; chloroform) was “soluble” and the “solubility in ethyl acetate” value ([9]; ethyl acetate) was “soluble”. The solubility in methanol ([9]; methanol) was “soluble”, the “solubility in methylisobutyl ketone” value ([9]; methylisobutyl ketone) was “soluble” and the solubility in water ([9]; water) was “insoluble”. The “Weight Gain” value ([10]; 25 ppm in diet) was 7%, the “Average degree of Infection” value ([10]; 25 ppm in diet) was 2.0 and the Ratio ([10]; 25 ppm in diet) was 1.00. For the same compound, the “Weight Gain” value ([10]; 50 ppm in diet) was 18%, the “Average degree of Infection” value ([10]; 50 ppm in diet) was 2.0 and the Ratio ([10]; 50 ppm in diet) was 1.00. The “Weight Gain” value ([10]; 100 ppm in diet) was 22%, the “Average degree of Infection” value ([10]; 100 ppm in diet) was 1.2 and the Ratio ([10]; 100 ppm in diet) was 0.60. For the same compound, the “Weight Gain” value ([10]; 200 ppm in diet) was 2%, the “Average degree of Infection” value ([10]; 200 ppm in diet) was 1.5 and the Ratio ([10]; 200 ppm in diet) was 0.75. For the same compound, the controlling infections ([10]; chickens, diet, 50 to 200 ppm) was “effective in controlling infections”, the “Average degree of Infection” value ([11]; 25 ppm in diet) was 2.6 and the Ratio ([11]; 25 ppm in diet) was 1.44. For the same compound, the “Weight Gain” value ([11]; 25 ppm in diet) was 47%, the “Average degree of Infection” value ([11]; 50 ppm in diet) was 1.0 and the Ratio ([11]; 50 ppm in diet) was 0.55. The “Weight Gain” value ([11]; 50 ppm in diet) was 49%, the “Average degree of Infection” value ([11]; 100 ppm in diet) was 0.4 and the Ratio ([11]; 100 ppm in diet) was 0.22. For the same compound, the “Weight Gain” value ([11]; 100 ppm in diet) was 47%, the controlling infections ([11]; chickens, diet, 50 to 200 ppm) was “effective in controlling infections” and the “Average degree of Infection” value ([12]; 25 ppm in diet) was 1.4. The Ratio ([12]; 25 ppm in diet) was 0.88, the “Weight Gain” value ([12]; 25 ppm in diet) was 51% and the “Average degree of Infection” value ([12]; 50 ppm in diet) was 1.0. The Ratio ([12]; 50 ppm in diet) was 0.63, the “Weight Gain” value ([12]; 50 ppm in diet) was 70% and the “Average degree of Infection” value ([12]; 100 ppm in diet) was 0.8. The Ratio ([12]; 100 ppm in diet) was 0.50, the “Weight Gain” value ([12]; 100 ppm in diet) was 37% and the “Average degree of Infection” value ([12]; 200 ppm in diet) was 1.5. For the same compound, the Ratio ([12]; 200 ppm in diet) was 0.94, the “Weight Gain” value ([12]; 200 ppm in diet) was 10% and the controlling infections ([12]; chickens, diet, 50 to 200 ppm) was “effective in controlling infections”. The “Average degree of Infection” value ([13]; 25 ppm in diet) was 0.6, the Ratio ([13]; 25 ppm in diet) was 0.33 and the “Weight Gain” value ([13]; 25 ppm in diet) was 111%. The “Average degree of Infection” value ([13]; 50 ppm in diet) was 0.2, the Ratio ([13]; 50 ppm in diet) was 0.11 and the “Weight Gain” value ([13]; 50 ppm in diet) was 99%. For the same compound, the “Average degree of Infection” value ([13]; 100 ppm in diet) was 0.0, the Ratio ([13]; 100 ppm in diet) was 0.00 and the “Weight Gain” value ([13]; 100 ppm in diet) was 69%. The controlling infections ([13]; chickens, diet, 50 to 200 ppm) was “effective in controlling infections”, the “Average degree of Infection” value ([14]; 25 ppm in diet, six days) was 3.0 and the Ratio ([14]; 25 ppm in diet, lesion score treated / infected control) was 0.95. For the same compound, the “Weight Gain” value ([14]; 25 ppm in diet, six days) was 47%, the Ratio [14, 15] was 0.49 and the “Weight Gain” value [14, 15] was 102%. The “Average degree of Infection” value [14, 15] was 1.7, the “Average degree of Infection” value ([14]; 50 ppm in diet, six days) was 2.7 and the Ratio ([14]; 50 ppm in diet, lesion score treated / infected control) was 0.86. For the same compound, the “Weight Gain” value ([14]; 50 ppm in diet, six days) was 22%, the Ratio [14, 16] was 0.09 and the “Weight Gain” value [14, 16] was 97%. The “Average degree of Infection” value [14, 16] was 0.3, the “Average degree of Infection” value ([14]; 100 ppm in diet, six days) was 1.0 and the Ratio ([14]; 100 ppm in diet, lesion score treated / infected control) was 0.32. For the same compound, the “Weight Gain” value ([14]; 100 ppm in diet, six days) was 57%, the Ratio [14, 17] was 0.37 and the “Weight Gain” value [14, 17] was 60%. The “Average degree of Infection” value [14, 17] was 1.3, the “Average degree of Infection” value ([14]; 200 ppm in diet, six days) was 1.3 and the Ratio ([14]; 200 ppm in diet, lesion score treated / infected control) was 0.41. The “Weight Gain” value ([14]; 200 ppm in diet, six days) was 37% and the controlling infections ([14]; chickens, diet, 50 to 200 ppm) was “effective in controlling infections”.
